{"source": "patent US6184207A", "about": "“Inhibitors of peptide binding to MHC class II proteins” (Zeneca Limited, priority 1996, dated 2001)", "key": {"HLA-DR4Dw4": {"biological_target": "T1, HLA-DR4Dw4 (Homo sapiens, UniProt P01903+P01911, A100K/A169T/F76Y/I96L/K127E/L162R/M171V/N62H/P40V/Q125Y/R42H/S133A/S149N/S66Y/V115G/V209L/W38E)", "T1 construct": "a cDNA encoding the β chain is cloned into the transfer vector pAcUW1; made in house; host or cells: Sf21 insect cells, double-recombinant baculovirus", "test": "Test A: Purified HLA-DR peptide in vitro binding assay", "conditions": "inhibition of biotin-FHA 307-320 binding to purified HLA-DR4Dw4, 48 hours", "description": "The utility of the peptides of the formula I, or a pharmaceutically acceptable salt thereof, may be assessed using a variety of standard tests and clinical studies, including those described in International Patent Application, Publication Nos. WO92/02543, WO93/05011 and WO95/07707 (or modifications thereof) and those described below. The peptides of formula I show significant activity in one or more of such tests or studies. Test A: Purified HLA-DR peptide in vitro binding assay. […]. […] The reaction is stopped by adding 2M sulphuric acid (10 μl per well) and the absorbance read at 450 nm to quantify the amount of peptide bound. The inhibitory activity of peptides is obtained by plotting absorbance against concentration. […]\nA cDNA encoding the sequence of the α polypeptide is cloned into the transfer vector pacYM1 [Matsuura, Y; Possce, RD; Overton, HA & Bishop, DHL (1987) J. Gen. […] The molecular genetic techniques used to construct the recombinant vectors are likewise readily available in the literature and are most fully described by Sambrook, J; Fritsch, EF & Maniatis T, (1989) [Molecular Cloning. […]"}, "BALB/C mice": {"tested_on": "BALB/C mice", "test": "Test C: Peptide stimulated DTH (delayed type hypersensitivity) in BALB/C mice", "format": "in vivo", "conditions": "ovalbumin DTH footpad swelling, 3-day osmotic mini-pumps", "method": "Test C: Peptide stimulated DTH (delayed type hypersensitivity) in BALB/C mice. […] Balb/c female mice (18-20 g), 5 per group, were immunised sub-cutaneously on the flank with 0.1 ml of an emulsion of ovalbumin (Sigma) (2 mg/ml in saline) mixed 1:1 (v/v) with complete Freunds adjuvant (Sigma). Seven days later footpad thickness was detemined using a dual caliper micrometer followed by a challenge in one hind footpad with a 30 μl sub-plantar injection of 1% heat-aggregated ovalbumin protein in saline. Twenty-four hours after antigen challenge, footpads were measured and the DTH response calculated as the percentage increase in footpad thickness in the injected footpad compared to contralateral control. Inhibitors were adminstered by 3-day osmotic mini-pumps (Alzet) implanted 24 hours prior to antigen challenge at doses ranging from 10 mg/kg/day to 0.1 μg/kg/day. The degree of inhibition was calculated by substracting the value for swelling of inhibitor treated footpads from that of the vehicle dosed controls, dividing by the control value and multiplying by 100%."}}, "data": [{"smiles": "C[C@H](NC(=O)CN1CCCC(NC(=O)[C@@H](NC(=O)[C@H](C)NC(=O)[C@H](C)NC(=O)[C@H](C)NC(=O)[C@H](CCCNC(=N)N)NC(=O)CCCCc2ccccc2)[C@@H](C)O)C1=O)C(=O)Nc1ccc(CC(N)=O)cc1", "note": "(stereo partly drawn) [Example 1, Phv-Arg-Ala-Ala-Ala-Thr-II-Ala-Papa-NH2]", "values": [{"measurement": "concentration showing significant binding to HLA-DR4Dw4 in Test A", "setting": "HLA-DR4Dw4", "result": "≤ 0.1", "unit": "µM"}, {"measurement": "dose at which active in Test C", "setting": "BALB/C mice", "result": "< 0.1", "unit": "mg/kg/day"}]}]}
